Data: ChEMBL document CHEMBL1201862, “PubChem BioAssay data set” (2004)
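Where inhibition never reached the appropriate level, the endpoint shown equals the highest concentration tested. Otherwise, values were interpolated linearly from a five-concentration, 48-hour dose response in 96-well plates. GI50: concentration for 50% inhibition of growth.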 Activity calls are given as the source filed them. Rule as the data show it: active = GI50 up to about 1.1 µM and inactive = higher.

How the values were obtained:
Experiment in all cases: NCI-60 cell line screen, 48 h
MDA-MB-231 = test system: MDA-MB-231
NCI/ADR-RES = test system: NCI/ADR-RES
DU-145 = test system: DU-145
COLO 205 = test system: COLO 205
HOP-62 = test system: HOP-62
HCT-15 = test system: HCT-15
A549 = test system: A549
T47D = test system: T47D
BT-549 = test system: BT-549
UO-31 = test system: UO-31
HCC 2998 = test system: HCC 2998
HOP-92 = test system: HOP-92
MDA-MB-435 = test system: MDA-MB-435
Hs-578T = test system: Hs-578T
MDA-N = test system: MDA-N
OVCAR-4 = test system: OVCAR-4
MCF7 = test system: MCF7
PC-3 = test system: PC-3
RXF 393 = test system: RXF 393

COc1ccc(N2C(=O)C3c4[nH]c5c(C)cccc5c4C4CCC(C(C)C)CC4C3C2=O)cc1 (configuration not stated)
GI50 (MDA-MB-231): 5.96 µM (inactive) | GI50 (NCI/ADR-RES): 16.1 µM (inactive) | GI50 (DU-145): 12.2 µM (inactive) | GI50 (COLO 205): 12.4 µM (inactive) | GI50 (HOP-62): 10 µM (inactive) | GI50 (HCT-15): 10 µM | GI50 (A549): 5.41 µM (inactive) | GI50 (T47D): 5.96 µM (inactive) | GI50 (BT-549): 28.6 µM (inactive) | GI50 (UO-31): 11.8 µM (inactive) | GI50 (HCC 2998): 10.3 µM (inactive) | GI50 (HOP-92): 12.1 µM (inactive) | GI50 (MDA-MB-435): 7.03 µM (inactive) | GI50 (Hs-578T): 8.09 µM (inactive) | GI50 (MDA-N): 10.3 µM (inactive) | GI50 (OVCAR-4): 14 µM (inactive) | GI50 (MCF7): 5.02 µM (inactive) | GI50 (PC-3): 8.87 µM (inactive)

C=COC(=O)N1C2CCCC(Cl)(C(C)=O)C1CC2 (configuration not stated)
GI50 (MDA-MB-231): > 100 µM (inactive) | GI50 (NCI/ADR-RES): > 100 µM (inactive) | GI50 (DU-145): > 100 µM (inactive) | GI50 (COLO 205): > 100 µM (inactive) | GI50 (HOP-62): > 100 µM (inactive) | GI50 (HCT-15): > 100 µM | GI50 (A549): > 100 µM (inactive) | GI50 (T47D): > 100 µM (inactive) | GI50 (BT-549): > 100 µM (inactive) | GI50 (UO-31): > 100 µM (inactive) | GI50 (HCC 2998): > 100 µM (inactive) | GI50 (HOP-92): > 100 µM (inactive) | GI50 (MDA-MB-435): 58.9 µM (inactive) | GI50 (Hs-578T): > 100 µM (inactive) | GI50 (MDA-N): 79.1 µM (inactive) | GI50 (OVCAR-4): > 100 µM (inactive) | GI50 (MCF7): > 100 µM (inactive) | GI50 (PC-3): > 100 µM (inactive)

CCC(C)[C@H]1C(=O)N=C(N)N1C(=O)OCc1ccccc1 (some centres not stated)
GI50 (MDA-MB-231): > 100 µM (inactive) | GI50 (RXF 393): > 100 µM (inactive) | GI50 (NCI/ADR-RES): > 100 µM (inactive) | GI50 (DU-145): > 100 µM (inactive) | GI50 (COLO 205): > 100 µM (inactive) | GI50 (HOP-62): > 100 µM (inactive) | GI50 (HCT-15): > 100 µM | GI50 (BT-549): > 100 µM (inactive) | GI50 (UO-31): 78 µM (inactive) | GI50 (HCC 2998): > 100 µM (inactive) | GI50 (MDA-MB-435): > 100 µM (inactive) | GI50 (MDA-N): > 100 µM (inactive) | GI50 (OVCAR-4): > 100 µM (inactive) | GI50 (MCF7): > 100 µM (inactive) | GI50 (PC-3): > 100 µM (inactive)

CCC(CC)C(=O)OC[n+]1ccc(-c2c(COC(=O)NC(C)C)c(COC(=O)NC(C)C)c3n2CCC3)cc1
GI50 (MDA-MB-231): > 100 µM (inactive) | GI50 (RXF 393): > 100 µM (inactive) | GI50 (NCI/ADR-RES): > 100 µM (inactive) | GI50 (COLO 205): > 100 µM (inactive) | GI50 (HOP-62): > 100 µM (inactive) | GI50 (HCT-15): > 100 µM | GI50 (A549): > 100 µM (inactive) | GI50 (BT-549): > 100 µM (inactive) | GI50 (UO-31): > 100 µM (inactive) | GI50 (HCC 2998): > 100 µM (inactive) | GI50 (HOP-92): > 100 µM (inactive) | GI50 (Hs-578T): > 100 µM (inactive) | GI50 (MDA-N): > 100 µM (inactive) | GI50 (OVCAR-4): > 100 µM (inactive) | GI50 (MCF7): > 100 µM (inactive) | GI50 (PC-3): > 100 µM (inactive)

O=C(O)CSC(CC1(c2ccc(Cl)cc2)NC(=O)CS1)c1ccc(Cl)cc1 (configuration not stated)
GI50 (MDA-MB-231): > 100 µM (inactive) | GI50 (NCI/ADR-RES): > 100 µM (inactive) | GI50 (DU-145): > 100 µM (inactive) | GI50 (COLO 205): > 100 µM (inactive) | GI50 (HOP-62): > 100 µM (inactive) | GI50 (HCT-15): > 100 µM | GI50 (A549): > 100 µM (inactive) | GI50 (T47D): 80.9 µM (inactive) | GI50 (BT-549): > 100 µM (inactive) | GI50 (UO-31): > 100 µM (inactive) | GI50 (HOP-92): 22.8 µM (inactive) | GI50 (MDA-MB-435): > 100 µM (inactive) | GI50 (Hs-578T): > 100 µM (inactive) | GI50 (MDA-N): > 100 µM (inactive) | GI50 (OVCAR-4): > 100 µM (inactive) | GI50 (MCF7): 77.1 µM (inactive) | GI50 (PC-3): > 100 µM (inactive)

N#Cc1ccsc1Nc1ccccc1[N+](=O)[O-]
GI50 (MDA-MB-231): 31.3 µM (inactive) | GI50 (RXF 393): 86.9 µM (inactive) | GI50 (NCI/ADR-RES): > 100 µM (inactive) | GI50 (DU-145): > 100 µM (inactive) | GI50 (COLO 205): > 100 µM (inactive) | GI50 (HOP-62): 38.1 µM (inactive) | GI50 (HCT-15): > 100 µM | GI50 (A549): > 100 µM (inactive) | GI50 (T47D): > 100 µM (inactive) | GI50 (BT-549): 38.5 µM (inactive) | GI50 (UO-31): > 100 µM (inactive) | GI50 (HCC 2998): > 100 µM (inactive) | GI50 (HOP-92): 68.7 µM (inactive) | GI50 (MDA-MB-435): > 100 µM (inactive) | GI50 (MDA-N): > 100 µM (inactive) | GI50 (OVCAR-4): > 100 µM (inactive) | GI50 (MCF7): > 100 µM (inactive) | GI50 (PC-3): > 100 µM (inactive)
